Results: US20130252930A1 (BIOMARIN PHARMACEUTICAL INC., priority 2010, published 2013)
Where two headings read alike, the source gives them in different places.

Columns and labels:
[1] = biological target: T1, CYP17 (human testicular microsome) (Homo sapiens, UniProt P05093); assay: CYP17 enzymatic assay (IC50) (Biological Example 4); assay type: biochemical; settings: human testicular microsome
T1 construct: using microsomal fraction from human testis (Celsis Cat #S00110) as the enzyme source; tissue Celsis S00110; host or cells: human testis microsomal fraction
T1 sequence (P05093 1-508): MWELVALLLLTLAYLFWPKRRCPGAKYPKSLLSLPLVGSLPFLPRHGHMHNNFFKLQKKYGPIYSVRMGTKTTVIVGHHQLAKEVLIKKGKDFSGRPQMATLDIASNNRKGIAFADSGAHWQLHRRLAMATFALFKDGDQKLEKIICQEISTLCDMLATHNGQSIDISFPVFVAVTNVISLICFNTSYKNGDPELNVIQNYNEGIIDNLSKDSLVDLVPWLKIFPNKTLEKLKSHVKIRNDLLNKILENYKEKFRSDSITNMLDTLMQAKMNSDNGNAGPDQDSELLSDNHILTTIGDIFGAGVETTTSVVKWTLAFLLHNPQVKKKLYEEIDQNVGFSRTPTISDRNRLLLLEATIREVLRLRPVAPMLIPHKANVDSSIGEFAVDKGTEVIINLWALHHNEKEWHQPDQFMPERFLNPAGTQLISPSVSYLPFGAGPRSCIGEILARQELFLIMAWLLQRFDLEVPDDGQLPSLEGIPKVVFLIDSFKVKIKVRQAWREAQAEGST
Description: The assays were performed in 96-well plates. Typical assays were carried out in total 100 μL volume that included test compounds at designated concentrations, 1× reaction buffer, 0.5 mM NADPH, 1 μM 17α-hydroxypregnenolone, and 2.5 μL of diluted human testicular microsome (Celsis. Cat #S00110). Reaction without test compound served as positive control. Reactions were allowed to incubate at 37° C. for 90 minutes with gentle shaking. The reaction was stopped by directly applying the enzymatic reaction mixture to ELISA plate for evaluation of DHEA concentration according to manufacturer's protocol (IBL America). A standard curve (OD450 vs. DHEA concentration) was generated using purified DHEA.

[2] = biological target: T2, Cyp21 enzyme (Human HEK 293-Cyp21 stable transfected cells) (Homo sapiens, UniProt P08686); assay: CYP21-HEK293 enzymatic assay (% inhibition at 100 nM) (Biological Example 10); assay type: cell-based; settings: HEK 293-Cyp21 cells
T2 construct: expressed in transfected cells
T2 sequence (P08686 1-495): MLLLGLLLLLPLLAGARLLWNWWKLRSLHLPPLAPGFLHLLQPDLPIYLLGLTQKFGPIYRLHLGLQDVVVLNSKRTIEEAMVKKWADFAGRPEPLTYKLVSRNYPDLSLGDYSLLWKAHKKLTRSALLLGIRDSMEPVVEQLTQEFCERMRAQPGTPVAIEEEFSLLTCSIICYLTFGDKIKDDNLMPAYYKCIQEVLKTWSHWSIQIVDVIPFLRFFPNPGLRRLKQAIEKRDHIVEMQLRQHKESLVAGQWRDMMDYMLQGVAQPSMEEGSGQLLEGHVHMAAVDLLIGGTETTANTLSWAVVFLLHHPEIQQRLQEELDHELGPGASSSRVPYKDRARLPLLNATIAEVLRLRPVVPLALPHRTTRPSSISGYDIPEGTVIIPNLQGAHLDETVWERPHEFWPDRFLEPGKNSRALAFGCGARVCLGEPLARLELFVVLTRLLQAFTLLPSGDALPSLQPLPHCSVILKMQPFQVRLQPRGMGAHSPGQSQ
In short: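 Percent inhibition at 100 nM: DOC in conditioned medium was read by ELISA at 450 nm and quantified from a standard curve. Stably transfected human Cyp21 HEK293 cells were pretreated 5 h with compound or 1% methanol mock, then given 10 μM final progesterone for 20 h at 37 °C.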

[3] = DHEA by ELISA, read-out: Biological Example No. 4: CYP17 enzymatic assay IC50
[4] = 100 nM compound, read-out: Biological Example No. 10: CYP21-HEK293 percent inhibition at 100 nM

SMILES	IC50 [1, 3]	inhibition at 0.1 µM [2, 4]	IC50 ([1]; read-out: CYP17 enzymatic assay IC50 (Biological Example No. 4))	inhibition at 0.1 µM ([2]; compound at 100 nM, read-out: CYP21-HEK293 enzymatic assay % inhibition at 100 nM (Biological Example No. 10))
C[C@]12CC[C@H]3[C@@H](CC=C4C[C@@H](O)CC[C@@]43C)C1=CC=C2c1cccnc1 [Compound 79, (3S,10R,13S)-10,13-dimethyl-17-(pyridin-3-yl)-2,3,4,7,8,9,10,11,12,13-decahydro-1H-cyclopenta[a]phenanthren-3-ol]	< 11 nM	< 30%	–	–
C[C@]12CC(O)C[C@@H]1CC[C@@H]1[C@@H]2CC[C@]2(C)C(n3ccnc3)=CC[C@@H]12 (stereo partly drawn) [Compound 109, (3aS,5aS)-6-(1H-imidazol-1-yl)-3a,5a-dimethyl-1,2,3,3a,3b,4,5,5a,8,8a,8b,9,10,10a-tetradecahydrodicyclopenta[a,f]naphthalen-2-ol]	< 11 nM	≥ 30%	–	–
CC(=O)NC1CC[C@@]2(C)C(=CCC3C2CC[C@]2(C)C(n4ccnc4)=CCC32)C1 (stereo partly drawn) [Compound 237, N-((10R,13S)-17-(1H-imidazol-1-yl)-10,13-dimethyl-2,3,4,7,8,9,10,11,12,13,14,15-dodecahydro-1H-cyclopenta[a]phenanthren-3-yl)acetamide]	–	–	< 11 nM	< 30%
